# Test results from publication PMC12562854, “Resin Glycosides with α-Glucosidase and Protein Tyrosine Phosphatase 1B Inhibitory Activities from the Seeds of Cuscuta japonica” (Biomolecules, 2025).
# Read-outs that look alike come from different tables or passages of the source.
# Assays:
# α-glucosidase [1] = conditions: cited from earlier work; for α-Glucosidase inhibition (in words): affinity-directed fractionation-mass spectrometry
# α-glucosidase [2] = target: T1, α-glucosidase (Saccharomyces cerevisiae, UniProt P53341); assay: α-Glucosidase inhibitory assay (pNPG hydrolysis); assay type: biochemical; conditions: for inhibition at 100 µM: read-out: α-Glucosidase Inhibition (%)
# T1 construct: purchased Sigma-Aldrich Inc
# T1 sequence (P53341 whole entry): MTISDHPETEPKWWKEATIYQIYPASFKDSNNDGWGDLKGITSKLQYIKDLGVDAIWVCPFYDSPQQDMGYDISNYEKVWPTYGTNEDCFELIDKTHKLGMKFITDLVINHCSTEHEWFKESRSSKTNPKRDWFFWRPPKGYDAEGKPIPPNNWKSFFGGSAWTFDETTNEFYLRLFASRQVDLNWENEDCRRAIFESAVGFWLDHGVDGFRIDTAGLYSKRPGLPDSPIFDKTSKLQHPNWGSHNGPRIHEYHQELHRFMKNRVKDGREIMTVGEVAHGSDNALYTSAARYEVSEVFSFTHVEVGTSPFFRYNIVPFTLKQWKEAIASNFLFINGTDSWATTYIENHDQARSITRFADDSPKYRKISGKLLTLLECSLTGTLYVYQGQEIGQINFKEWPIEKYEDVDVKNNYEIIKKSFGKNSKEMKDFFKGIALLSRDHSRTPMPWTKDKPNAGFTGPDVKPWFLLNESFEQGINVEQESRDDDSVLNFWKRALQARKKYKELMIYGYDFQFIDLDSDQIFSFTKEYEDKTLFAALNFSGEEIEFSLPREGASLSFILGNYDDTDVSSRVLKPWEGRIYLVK
# Protocol: In brief, 140 μL of phosphate buffer (0.2 M, pH 6.8) was added to the 96-well microplate wells, followed by the addition of 10 μL α-glucosidase solution (0.5 U/mL, Sigma-Aldrich Inc., Saint Louis, MO, USA) and 2 μL of the test compound. The control wells contained 2 μL of DMSO in place of the test sample, while the enzyme solution was replaced by an additional 10 μL of phosphate buffer in the background wells. After preincubation at 37 °C for 10 min, 48 μL of 2 mM p-nitrophenyl-α-D-glucopyranoside (pNPG) was introduced into each well. The reaction mixtures were incubated for 30 min before being terminated by adding 50 μL of 0.1 M Na2CO3 solution. Absorbance was measured at 405 nm using a microplate reader. […] All assays were performed in triplicate and repeated three times independently.
# PTP1B [3] = target: T2, PTP1B (Homo sapiens, UniProt P18031); assay: Enzyme reversibility and kinetics analysis, PTP1B; assay type: biochemical
# T2 construct: purchased MedChemExpress LLC
# T2 sequence (P18031 1-435): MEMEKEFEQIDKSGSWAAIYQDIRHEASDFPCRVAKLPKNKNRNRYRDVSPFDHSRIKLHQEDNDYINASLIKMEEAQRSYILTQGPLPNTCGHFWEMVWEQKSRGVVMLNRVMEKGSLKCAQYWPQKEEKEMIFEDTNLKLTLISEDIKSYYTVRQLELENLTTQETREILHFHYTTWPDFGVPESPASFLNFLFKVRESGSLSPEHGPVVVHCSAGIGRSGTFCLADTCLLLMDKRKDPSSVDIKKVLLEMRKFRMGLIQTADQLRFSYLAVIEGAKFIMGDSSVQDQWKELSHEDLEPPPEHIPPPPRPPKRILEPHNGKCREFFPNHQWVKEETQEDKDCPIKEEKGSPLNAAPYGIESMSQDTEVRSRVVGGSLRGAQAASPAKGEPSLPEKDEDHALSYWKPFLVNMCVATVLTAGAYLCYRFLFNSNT
# Protocol: (§1) Reversibility was assessed by plotting the enzyme reaction velocity (v) against varying enzyme concentrations in the presence of different inhibitor concentrations. Lineweaver–Burk plots (1/v vs. 1/[S]) were constructed by measuring reaction velocities at multiple substrate concentrations with varying amounts of inhibitors. From these plots, inhibition type, as well as Michaelis–Menten constants Km and Vmax, were determined. Additionally, slopes and Y-intercepts of these reciprocal plots were also plotted against inhibitor concentrations to further characterize the inhibition constants Ki and Kis, respectively.
# PTP1B [4] = target: T2, PTP1B; assay: PTP1B inhibitory assay (pNPP hydrolysis); assay type: biochemical; conditions: for IC50: mean ± SD of three independent experiments; for inhibition at 100 µM: percent inhibition at a concentration of 100 μM
# Protocol: The inhibitory activity against PTP1B was assessed via the p-nitrophenyl phosphate (pNPP) hydrolysis assay. The reaction buffer consisted of 50 mM citrate buffer (pH 6.0) supplemented with 0.1 M NaCl, 2 mM EDTA, and 1 mM DTT. Recombinant PTP1B enzyme (MedChemExpress LLC, Monmouth Junction, NJ, USA) was used at a concentration of 5 μg/mL, with 10 mM pNPP serving as the substrate. The enzymatic reaction was terminated by the addition of 1M NaOH.
# α-glucosidase [5] = target: T1, α-glucosidase; assay: Enzyme reversibility and kinetics analysis, α-glucosidase; assay type: biochemical
# Protocol: as §1
# [6] = read-out: α-Glucosidase IC50, mean ± SD of three independent experiments
# [7] = secondary plot of Y-intercept from Lineweaver–Burk data
# [8] = velocity vs enzyme concentration at different inhibitor levels
Compound,IC50 (α-glucosidase [2]; [6]),inhibition at 100 µM (α-glucosidase [2]),IC50 (PTP1B [4]),inhibition at 100 µM (PTP1B [4]),also measured
CCC[C@H]1CCCCCCCCCC(=O)O[C@H]2[C@H](OC[C@H]3O[C@@H](O[C@H]4[C@H](O1)O[C@H](C)[C@@H](O)[C@@H]4O)[C@H](O[C@@H]1O[C@@H](C)[C@H](OC(C)=O)[C@@H](O)[C@H]1O)[C@@H](O)[C@@H]3O)O[C@H](C)[C@@H](O)[C@@H]2OC(=O)[C@H](C)[C@@H](C)O [albinoside VI],,,,,α-Glucosidase inhibition (in words) (α-glucosidase [1]): potent α-glucosidase inhibitors
operculinic acid A,,,,,IC50 (α-glucosidase [1]; from Ipomoea biflora): 78.3 µM
"CCCC[C@@H](CCCCCCCCCC(=O)OC)O[C@@H]1O[C@H](CO)[C@@H](O)[C@H](O)[C@H]1O[C@@H]1O[C@@H](C)[C@H](O[C@@H]2O[C@@H](C)[C@H](O[C@@H]3O[C@@H](C)[C@H](O)[C@@H](O)[C@H]3O)[C@@H](O[C@@H]3O[C@H](CO)[C@@H](O)[C@H](O)[C@H]3O)[C@H]2O)[C@@H](O)[C@H]1O [Compound 3, Cusponin III]",64.9 ± 2.97 µM,67.1 ± 1.18%,14.2 ± 1.29 µM,89.2 ± 2.55%,"Inhibition type, PTP1B (PTP1B [3]; Lineweaver–Burk plot): mixed-type; Vmax of PTP1B in presence of inhibitor (PTP1B [3]; at 25 μM compound 3 (0.104 at 0 μM)): 0.075; Inhibition constant Kis (enzyme–substrate complex), PTP1B (PTP1B [3]; [7]): 64.24 µM; Ki (PTP1B [3]; secondary plot of slope from Lineweaver–Burk data, read-out: Inhibition constant Ki (free enzyme), PTP1B): 24.8 µM; Reversibility of PTP1B inhibition (PTP1B [3]; [8]): reversible"
CCC[C@H]1CCCCCCCCCC(=O)O[C@H]2[C@H](O[C@H]3[C@H](O)[C@@H](C)O[C@@H](O[C@H]4[C@H](O1)O[C@H](C)[C@@H](O)[C@@H]4O)[C@@H]3O[C@@H]1O[C@@H](C)[C@H](OC(C)=O)[C@@H](O)[C@H]1O)O[C@H](C)[C@@H](O)[C@@H]2OC(=O)[C@H](C)[C@@H](C)O [albinoside VII],,,,,α-Glucosidase inhibition (in words) (α-glucosidase [1]): potent α-glucosidase inhibitors
"CCCC[C@@H](CCCCCCCCCC(=O)OC)O[C@@H]1O[C@H](CO)[C@@H](O)[C@H](O)[C@H]1O[C@@H]1O[C@@H](C)[C@H](O[C@@H]2O[C@@H](C)[C@H](O[C@@H]3O[C@@H](C)[C@H](O)[C@@H](O[C@@H]4O[C@H](CO)[C@@H](O)[C@H](O)[C@H]4O)[C@H]3O)[C@@H](O)[C@H]2O)[C@@H](O)[C@H]1O [Compound 1, Cusponin I]",38.2 ± 3.36 µM,68.7 ± 4.11%,> 100 µM,5.41 ± 0.67%,
"CCCC[C@@H](CCCCCCCCCC(=O)OC)O[C@@H]1O[C@H](C)[C@H](O)[C@H](O)[C@H]1O[C@@H]1O[C@H](CO)[C@@H](O)[C@H](O[C@@H]2O[C@H](CO)[C@@H](O)[C@H](O)[C@H]2O)[C@H]1O[C@@H]1O[C@@H](C)[C@H](O)[C@@H](O)[C@H]1O [Compound 7, Cusponin VII]",> 100 µM,49.4 ± 1.71%,> 100 µM,15.9 ± 2.92%,
"CCCC[C@@H](CCCCCCCCCC(=O)OC)O[C@@H]1O[C@H](C)[C@H](O)[C@H](O)[C@H]1O[C@@H]1O[C@@H](C)[C@H](O[C@@H]2O[C@@H](C)[C@H](O[C@@H]3O[C@@H](C)[C@H](O)[C@@H](O)[C@H]3O)[C@@H](O[C@@H]3O[C@H](CO)[C@@H](O)[C@H](O)[C@H]3O)[C@H]2O)[C@@H](O)[C@H]1O [Compound 4, Cusponin IV]",55.5 ± 6.89 µM,66.5 ± 3.65%,> 100 µM,15 ± 2.45%,
"CCCCC[C@@H](CCCCCCCCCC(=O)OC)O[C@@H]1O[C@H](CO)[C@@H](O)[C@H](O)[C@H]1O[C@@H]1O[C@@H](C)[C@H](O[C@@H]2O[C@@H](C)[C@H](O[C@@H]3O[C@@H](C)[C@H](O)[C@@H](O[C@@H]4O[C@H](CO)[C@@H](O)[C@H](O)[C@H]4O)[C@H]3O)[C@@H](O)[C@H]2O)[C@@H](O)[C@H]1O [Compound 2, Cusponin II]",,83 ± 0.84%,> 100 µM,3.26 ± 0.16%,"Inhibition type, α-glucosidase (α-glucosidase [5]; Lineweaver–Burk plots): uncompetitive; Vmax of α-glucosidase in presence of inhibitor (α-glucosidase [5]; at 16 μM compound 2 (0.115 at 0 μM)): 0.021; Inhibition constant Kis (enzyme–substrate complex), α-glucosidase (α-glucosidase [5]; [7]): 3.02 µM; Reversibility of α-glucosidase inhibition (α-glucosidase [5]; [8]): reversible; IC50 (α-glucosidase [2]): 8.02 ± 2.9 µM"
"C[C@H]1[C@H](C)CC[C@]2(C(=O)O)CC[C@]3(C)C(=CC[C@@H]4[C@@]5(C)CC[C@H](O)C(C)(C)[C@@H]5CC[C@]43C)[C@H]12 [Ursolic acid, ursolic acid, reference compound]",,,,90.4 ± 5.23%,
"CCCC[C@@H](CCCCCCCCCC(=O)OC)O[C@@H]1O[C@H](C)[C@H](O)[C@H](O)[C@H]1O[C@@H]1O[C@H](CO)[C@@H](O)[C@H](O[C@@H]2O[C@H](CO)[C@@H](O)[C@H](O)[C@H]2O)[C@H]1O[C@@H]1O[C@@H](C)[C@H](OC(=O)[C@H](C)[C@@H](C)OC(=O)[C@H](C)[C@@H](C)O)[C@@H](O)[C@H]1O [Compound 5, Cusponin V]",> 100 µM,51.8 ± 1.77%,62.3 ± 8.61 µM,52.7 ± 4.6%,
"CCCCC[C@@H](CCCCCCCCCC(=O)OC)O[C@@H]1O[C@H](CO)[C@@H](O)[C@H](O)[C@H]1O[C@@H]1O[C@@H](C)[C@H](O[C@@H]2O[C@@H](C)[C@H](O[C@@H]3O[C@@H](C)[C@H](O)[C@@H](O)[C@H]3O)[C@@H](O[C@@H]3O[C@H](CO)[C@@H](O)[C@H](O)[C@H]3O)[C@H]2O)[C@@H](O)[C@H]1O [Compound 8, operculinic acid B methyl ester]",65.1 ± 9.41 µM,64.6 ± 3.12%,> 100 µM,7.78 ± 1.98%,
"CCCC[C@@H](CCCCCCCCCC(=O)OC)O[C@@H]1O[C@H](C)[C@H](O)[C@H](O)[C@H]1O[C@@H]1O[C@H](CO)[C@@H](O)[C@H](O[C@@H]2O[C@H](CO)[C@@H](O)[C@H](O)[C@H]2O)[C@H]1O[C@@H]1O[C@@H](C)[C@H](OC(=O)[C@H](C)[C@@H](C)O)[C@@H](O)[C@H]1O [Compound 6, Cusponin VI]",71.4 ± 3.23 µM,60.5 ± 5.42%,> 100 µM,29.9 ± 4.5%,
